27 compounds from PubChem BioAssay (NCI) can be followed below.

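Method: 48-hour compound exposure of cells in 96-well plates, five concentrations, linear interpolation of endpoints. TGI marks complete inhibition of growth.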

One assay has as its system MDA-MB-231 breast. The assay is described as follows: NCI tumour cell line growth inhibition, 48 h.
For the compound `O=C(Cc1nc2ccc(C(=O)c3ccccc3)cc2[nH]c1=O)C(=O)Nc1ccc(Br)cc1`, the TGI is more than 100 µM.

`Cc1cccc(N2C(=O)C3ON(C(C(N)=O)c4ccccc4)C(c4c5ccccc5c(Cl)c5ccccc45)C3C2=O)c1C` (stereo unspecified) came in with a TGI of 18.1 µM.

In turn, `Cc1ccccc1C1OC1C(=O)c1ccccc1N` (stereo unspecified) displayed a TGI of more than 100 µM.

For `c1cc(-c2cnc(-c3ccc4c(c3)CCCO4)o2)ccn1`, the TGI worked out at 41 µM.

For `CCN(CC)CCn1c2cc3c(cc2c(=O)c2cccnc21)OCCO3`, the TGI is more than 10 µM.

A further assay deals with MDA-N. The assay is described as follows: NCI tumour cell line growth inhibition, 48 h.
As for `Cc1ccc2c(c1)nc(N)n[n+]2[O-]`, the TGI is more than 100 µM.

Regarding `COc1ccc2c(c1)c1c(n2CCN2CCOCC2)-c2ccccc2CC1`, the TGI is more than 100 µM.

On to `Cc1cn(C2C=CC(COP(=O)(OCC3=CC(=O)c4ccccc4C3=O)N(C)CCCCCl)O2)c(=O)[nH]c1=O` (stereo unspecified), for which the TGI stood at 4.22 µM.

Compound `CCOC(=O)c1cc(=C2\CCN(CC(C)CC)C2=S)/c(=C(/O)CC)[nH]1` (stereo unspecified) showed a TGI of 28.2 µM.

As to `CCCCc1c(O)nc(Nc2nc3ccccc3[nH]2)[nH]c1=O`, the TGI was more than 100 µM.

`CC1(C)CC2(C)CC1CC2O` (stereo unspecified): the TGI was more than 100 µM.

In turn, `N#CC1=C(N)OC2=C(CSc3ccccc32)C1c1ccc(Br)cc1` (stereo unspecified) displayed a TGI of 14.4 µM.

Take `CCC(=O)C(c1ccccc1)c1ccccn1` (stereo unspecified): the TGI was more than 100 µM.

As to `Cc1sc2nc3n(c(=O)c2c1C)N=CN(c1ccccc1)C3`, the TGI is more than 100 µM.

`COC(=O)C1=C(C(=O)OC)C2OC1C1C2C2(C)C(C)=C(C)C1(C)S2=O` (stereo unspecified) had a TGI of more than 50.3 µM.

`CCOC(=O)CCC(NC(=O)c1ccc(OCc2nc3cc(C(F)(F)F)ccc3nc2-c2ccccc2)cc1)C(=O)OCC` (stereo unspecified) displayed a TGI of more than 100 µM.

Turning to `O=c1c2c3ccccc3[nH]c2c2cccc3c2n1CCC3`, the TGI was more than 100 µM.

The compound `c1ccc([P+](CCNCCNCC[P+](c2ccccc2)(c2ccccc2)c2ccccc2)(c2ccccc2)c2ccccc2)cc1` showed a TGI of more than 100 µM.

Turning to `c1ccc(C[P+]2(c3ccccc3)c3ccccc3-c3ccccc32)cc1`, the TGI is more than 100 µM.

`C=CCN(CC=C)Cn1c(=S)sc2ccccc21` yielded a TGI of more than 100 µM.

The compound `O=c1[nH]c2nc3ccccc3c(=O)n2/c1=C/c1ccc(O)cc1` displayed a TGI of more than 100 µM.

Regarding `CCOC(=O)c1c(NC(=O)c2ccccc2)sc2c1CCCC2`, the TGI was more than 100 µM.

With `O=c1c2ccccc2[nH]c(=S)n1-c1ccc(N=Nc2cccc3c(O)cccc23)cc1`, the TGI was more than 100 µM.

In the case of `CCOc1ccc(N/C(=C(/C(Cl)=C(/Cl)NCCN)[N+](=O)[O-])n2nnc3ccccc32)cc1`, the TGI was more than 100 µM.

On to `CC(=O)NC1C(OCc2ccccc2)OC(CO)C(O)C1OCC(=O)N[C@@H](C)C(=O)N[C@H](CCC(=O)NCCNCCNc1c2ccccc2nc2cccc([N+](=O)[O-])c12)C(N)=O` (stereo partly specified), for which the TGI was more than 100 µM.

Consider `O=C1CC(C(O)CO)CC(=O)N1` (stereo unspecified), for which the TGI was more than 100 µM.

As for `C[C@]12OC[C@H](c3ccccc3)N1C(=O)C1[C@H]2CC12SCCS2` (stereo partly specified), the TGI is more than 100 µM.

With `O=C(Cc1nc2ccc(C(=O)c3ccccc3)cc2[nH]c1=O)C(=O)Nc1ccc(Br)cc1`, the TGI is more than 100 µM.

Compound `Cc1cccc(N2C(=O)C3ON(C(C(N)=O)c4ccccc4)C(c4c5ccccc5c(Cl)c5ccccc45)C3C2=O)c1C` (stereo unspecified) registered a TGI of 10 µM.

As for `Cc1ccccc1C1OC1C(=O)c1ccccc1N` (stereo unspecified), the TGI was 36.3 µM.

Take `c1cc(-c2cnc(-c3ccc4c(c3)CCCO4)o2)ccn1`: the TGI is 27.8 µM.

For `CCN(CC)CCn1c2cc3c(cc2c(=O)c2cccnc21)OCCO3`, the TGI was more than 10 µM.

For the next assay, the system named is MOLT-4 leukemia. The assay is described as follows: NCI tumour cell line growth inhibition, 48 h.
Regarding `Cc1ccc2c(c1)nc(N)n[n+]2[O-]`, the TGI was more than 100 µM.

In the case of `COc1ccc2c(c1)c1c(n2CCN2CCOCC2)-c2ccccc2CC1`, the TGI was 48 µM.

The compound `Cc1cn(C2C=CC(COP(=O)(OCC3=CC(=O)c4ccccc4C3=O)N(C)CCCCCl)O2)c(=O)[nH]c1=O` (stereo unspecified) yielded a TGI of 0.769 µM.

`CCOC(=O)c1cc(=C2\CCN(CC(C)CC)C2=S)/c(=C(/O)CC)[nH]1` (stereo unspecified): the TGI stood at 24.6 µM.

`CCCCc1c(O)nc(Nc2nc3ccccc3[nH]2)[nH]c1=O` gave a TGI of more than 100 µM.

With `CC1(C)CC2(C)CC1CC2O` (stereo unspecified), the TGI was more than 100 µM.

With `N#CC1=C(N)OC2=C(CSc3ccccc32)C1c1ccc(Br)cc1` (stereo unspecified), the TGI was 8.44 µM.

`Cc1sc2nc3n(c(=O)c2c1C)N=CN(c1ccccc1)C3`: the TGI is more than 100 µM.

For the compound `COC(=O)C1=C(C(=O)OC)C2OC1C1C2C2(C)C(C)=C(C)C1(C)S2=O` (stereo unspecified), the TGI was more than 100 µM.

Regarding `CCOC(=O)CCC(NC(=O)c1ccc(OCc2nc3cc(C(F)(F)F)ccc3nc2-c2ccccc2)cc1)C(=O)OCC` (stereo unspecified), the TGI is more than 100 µM.

Compound `O=c1c2c3ccccc3[nH]c2c2cccc3c2n1CCC3` displayed a TGI of 86 µM.

With `c1ccc([P+](CCNCCNCC[P+](c2ccccc2)(c2ccccc2)c2ccccc2)(c2ccccc2)c2ccccc2)cc1`, the TGI is more than 100 µM.

The compound `c1ccc(C[P+]2(c3ccccc3)c3ccccc3-c3ccccc32)cc1` came in with a TGI of more than 100 µM.

For `C=CCN(CC=C)Cn1c(=S)sc2ccccc21`, the TGI is more than 100 µM.

`O=c1[nH]c2nc3ccccc3c(=O)n2/c1=C/c1ccc(O)cc1` had a TGI of more than 100 µM.

The compound `CCOC(=O)c1c(NC(=O)c2ccccc2)sc2c1CCCC2` showed a TGI of more than 100 µM.

Compound `O=c1c2ccccc2[nH]c(=S)n1-c1ccc(N=Nc2cccc3c(O)cccc23)cc1` had a TGI of more than 100 µM.

As to `CCOc1ccc(N/C(=C(/C(Cl)=C(/Cl)NCCN)[N+](=O)[O-])n2nnc3ccccc32)cc1`, the TGI is more than 100 µM.

In the case of `C[C@]12OC[C@H](c3ccccc3)N1C(=O)C1[C@H]2CC12SCCS2` (stereo partly specified), the TGI is more than 100 µM.

Turning to `Cc1cccc(N2C(=O)C3ON(C(C(N)=O)c4ccccc4)C(c4c5ccccc5c(Cl)c5ccccc45)C3C2=O)c1C` (stereo unspecified), the TGI is 10.2 µM.

`Cc1ccccc1C1OC1C(=O)c1ccccc1N` (stereo unspecified) displayed a TGI of more than 100 µM.

On to `c1cc(-c2cnc(-c3ccc4c(c3)CCCO4)o2)ccn1`, for which the TGI turned out to be 22.2 µM.

Consider `CCN(CC)CCn1c2cc3c(cc2c(=O)c2cccnc21)OCCO3`, for which the TGI was more than 10 µM.

The test system of a further assay is NCI-H23 lung. The assay is described as follows: NCI tumour cell line growth inhibition, 48 h.
In the case of `Cc1ccc2c(c1)nc(N)n[n+]2[O-]`, the TGI is more than 100 µM.

Take `COc1ccc2c(c1)c1c(n2CCN2CCOCC2)-c2ccccc2CC1`: the TGI is more than 100 µM.

Compound `Cc1cn(C2C=CC(COP(=O)(OCC3=CC(=O)c4ccccc4C3=O)N(C)CCCCCl)O2)c(=O)[nH]c1=O` (stereo unspecified) yielded a TGI of 6.49 µM.

For the compound `CCOC(=O)c1cc(=C2\CCN(CC(C)CC)C2=S)/c(=C(/O)CC)[nH]1` (stereo unspecified), the TGI stood at 33.6 µM.

For `CCCCc1c(O)nc(Nc2nc3ccccc3[nH]2)[nH]c1=O`, the TGI is more than 100 µM.

As to `CC1(C)CC2(C)CC1CC2O` (stereo unspecified), the TGI is more than 100 µM.

On to `N#CC1=C(N)OC2=C(CSc3ccccc32)C1c1ccc(Br)cc1` (stereo unspecified), for which the TGI was 26.4 µM.

Turning to `CCC(=O)C(c1ccccc1)c1ccccn1` (stereo unspecified), the TGI is more than 100 µM.

With `Cc1sc2nc3n(c(=O)c2c1C)N=CN(c1ccccc1)C3`, the TGI was more than 100 µM.

Turning to `COC(=O)C1=C(C(=O)OC)C2OC1C1C2C2(C)C(C)=C(C)C1(C)S2=O` (stereo unspecified), the TGI came out at 25.8 µM.

On to `CCOC(=O)CCC(NC(=O)c1ccc(OCc2nc3cc(C(F)(F)F)ccc3nc2-c2ccccc2)cc1)C(=O)OCC` (stereo unspecified), for which the TGI is more than 100 µM.
